Laboratory results taken from patent US20260191845A1, “PYRIDINE-2-THIOL 1-OXIDE DERIVATIVES AND THEIR USE FOR TREATMENT OF MAMMALIAN INFECTIONS CAUSED BY MYCOBACTERIUM OR FUNGI” (priority 2022, published 2026).
Converted amounts (≈) assume the structure as drawn. Read-outs that look alike come from different tables or passages of the source.

Key:
[1] = test system: Mycobacterium abscessus ATCC 19977; test: REMA MIC90 against M. abscessus ATCC 19977; type: cell-based; conditions: Mycobacteroides abscessus
Experimental: Briefly, serial 2-fold dilutions of drug are prepared in 96-well microtiter plates (Fluoronunc, Thermo Fisher, Waltham, MA, USA) in 100 μL of Middlebrook 7H9 medium (Difco), supplemented with 10% OADC without addition of Tween 80. Then, M. abscessus log-phase cultures were diluted (OD600=0.02) and added in the 96-well microtiter plate. Growth controls containing no compound and sterile controls without inoculum are also included. […] After 1 day of incubation at 37° C., 10 μL of resazurin (0.025% w/v) is added to each well, and bacterial viability is assessed after a further 24 h of incubation using a Fluoroskan™ Microplate Fluorometer (Thermo Fisher Scientific, Waltham, MA, USA; excitation=544 nm, emission=590 nm). […] Results are expressed as the average of at least three independent replicates and presented on the following Table 1.

Penicillium notatum = test: Antifungal agar well diffusion assay; conditions: 20 μL water solution in 4 mm well
Experimental: (§1) The well diffusion test was performed using Casitone agar. The inoculum used was prepared using the Candida or Aspergillus strains from a 24-hour culture on Sabouraud dextrose agar, a suspension was made in a sterile saline solution (0.85%). The turbidity of the suspension was adjusted with a spectrophotometer at 530 nm to obtain a final concentration to match that of a 0.5 McFarland standard (0.5-2.5×10^3). 20 mL of Bacto-casitone were melted, cooled to 55° C. and then inoculated with 1 mL of the organism suspension. The inoculated agar was poured into the assay plate (9 cm in diameter) and allowed to cool down on a leveled surface.

Candida albicans H8 = test: Antifungal agar well diffusion assay; conditions: 20 μL water solution in 4 mm well
Experimental: as §1

[2] = test system: Sporobolomyces salmonicolor; test: Antifungal agar well diffusion assay; conditions: 20 μL water solution in 4 mm well
Experimental: as §1

Aspergillus niger = test: Antifungal agar well diffusion assay; conditions: 20 μL water solution in 4 mm well
Experimental: as §1

[3] = ATCC19977, MIC90, REMA, Table 1, read-out: MIC in M. abscessus ATCC 19977
[4] = ATCC19977, read-out: MIC in M. abscessus ATCC 19977

CN(C)C(=O)c1ccc([S-])[n+]([O-])c1.[Na+] [Compound 9, Sodium 5-[(dimethylamino)carbonyl]pyridine-2-thiolate 1-oxide]
MIC [1, 3]: 500 µg/mL

CCOC(=O)c1ccc(S)[n+]([O-])c1 [Compound 1, Ethyl 6-mercaptonicotinate 1-oxide]
Inhibition Zone of Test Microorganism (Penicillium notatum): 17 mm
Inhibition Zone of Test Microorganism (Candida albicans H8): 56 mm
Inhibition Zone of Test Microorganism [2]: 43 mm
Inhibition Zone of Test Microorganism (Aspergillus niger): 26 mm
MIC [1, 3]: 125 µg/mL (≈ 627 µM)

COC(=O)c1ccc([S-])[n+]([O-])c1.[Na+] [Compound 4, Sodium 5-(methoxycarbonyl)pyridine-2-thiolate 1-oxide]
MIC [1, 3]: 250 µg/mL

COC(=O)c1ccc(S)[n+]([O-])c1 [Compound 3, Methyl 6-mercaptonicotinate 1-oxide]
MIC [1, 3]: 250 µg/mL (≈ 1350 µM)

[Na+].[O-][n+]1cc(C(F)(F)F)ccc1[S-] [Compound 5, Sodium 5-(trifluoromethyl)pyridine-2-thiolate 1-oxide]
Inhibition Zone of Test Microorganism (Penicillium notatum): 15 mm
Inhibition Zone of Test Microorganism (Candida albicans H8): 49 mm
Inhibition Zone of Test Microorganism [2]: 40 mm
Inhibition Zone of Test Microorganism (Aspergillus niger): 22 mm
MIC [1, 4]: 250 µg/mL

O=C(c1ccc([S-])[n+]([O-])c1)N1CCCCC1.[K+] [Compound 7, Potassium 5-(piperidin-1-ylcarbonyl)pyridine-2-thiolate 1-oxide]
Inhibition Zone of Test Microorganism (Penicillium notatum): 15 mm
Inhibition Zone of Test Microorganism (Candida albicans H8): 52 mm
Inhibition Zone of Test Microorganism [2]: 43 mm
Inhibition Zone of Test Microorganism (Aspergillus niger): 23 mm
MIC [1, 4]: 1000 µg/mL

CC(C)OC(=O)c1ccc([S-])[n+]([O-])c1.[Na+] [Compound 10, Sodium 5-(isopropoxycarbonyl)pyridine-2-thiolate 1-oxide]
MIC [1, 3]: 500 µg/mL

C[C@@H]1[C@H](O)[C@@H](C)/C=C/C=C/C=C/C=C/C=C/C=C/C=C/[C@H](O[C@@H]2O[C@H](C)[C@@H](O)[C@H](N)[C@@H]2O)C[C@@H]2O[C@](O)(C[C@@H](O)C[C@@H](O)[C@H](O)CC[C@@H](O)C[C@@H](O)CC(=O)O[C@H]1C)C[C@H](O)[C@H]2C(=O)O [Amph. B, reference compound]
Inhibition Zone of Test Microorganism (Penicillium notatum): 12 mm
Inhibition Zone of Test Microorganism (Candida albicans H8): 22 mm
Inhibition Zone of Test Microorganism [2]: 15 mm
Inhibition Zone of Test Microorganism (Aspergillus niger): 17 mm

NC(=O)c1ccc([S-])[n+]([O-])c1.[K+] [Compound 6, Potassium 5-(aminocarbonyl)pyridine-2-thiolate 1-oxide]
MIC [1, 4]: 500 µg/mL

CN(C)C(=O)c1ccc(S)[n+]([O-])c1 [Compound 8, 6-Mercapto-N,N-dimethylnicotinamide 1-oxide]
MIC [1, 3]: 500 µg/mL (≈ 2520 µM)
